Assay results published in patent US6962931B2, “Self-emulsifying formulations of cholesteryl ester transfer protein inhibitors” (Pfizer Inc., priority 2001, dated 2005).

Assay: Equilibrium solubility in excipients, vehicles and emulsion preconcentrates
Assay type: physicochemical
Settings: equilibrium
Procedure: The solubility of CETP inhibitors in excipients and in formulations was determined by adding an excess of compound to the medium in question. The mixture was agitated by rotation over a period of days at ambient temperature until the concentration in solution had reached an equilibrium as judged by similar measurements for consecutive time points. Concentrations were measured by filtration of aliquots with a PTFE syringe filter and assay by HPLC as described in Example 11.
The solubility of crystalline CETP inhibitors in representative vehicles was determined by adding an excess of compound to the vehicle in question. The mixture was agitated by rotation over a period of days at ambient temperature until the concentration in solution had reached equilibrium as judged by similar measurements for consecutive time points. Concentrations were measured by filtration of aliquots with a PTFE syringe filter and assayed by HPLC.
The concentrations of CETP inhibitor in each vehicle were assayed at intervals by dilution of aliquots into acetonitrile and gradient HPLC analysis on a Water Symmetry C-8 column (3.9×150 mm, 5 micron) at 30° C. at a flow rate of 1 mL/min. […] The detection method was UV absorbance at 210 nm.

Solubility (ambient temperature, vehicle Water): <0.00004 mgA/ml
Solubility (Miglyol 812/EtOH/Cremophor EL (76/4/20)): 89 mgA/ml
Solubility (Miglyol 812/Ethyl lactate/Cremophor EL 30/50/20): 256 mgA/ml
Solubility (Miglyol 812/Ethyl lactate/Cremophor EL 40/40/20): 221 mgA/ml
Solubility (Miglyol 812/Ethyl lactate/Cremophor EL 50/30/20): 196 mgA/ml
Solubility (Miglyol 812/Ethyl lactate/Cremophor EL 60/20/20): 143 mgA/ml
Solubility (Miglyol 812/Ethyl lactate/Cremophor EL 65/15/20): 120 mgA/ml
Solubility (Miglyol 812/Ethyl lactate/Cremophor EL 70/10/20): 99 mgA/ml
Solubility (Miglyol 812/Ethyl lactate/Cremophor EL 72/8/20): 94 mgA/ml
Solubility (Miglyol 812/Ethyl lactate/Labrasol (72/8/20)): 98 mgA/ml
Solubility (Miglyol 812/Ethyl lactate/Tagat TO (72/8/20)): 87 mgA/ml
Solubility (Miglyol 812/Peppermint Oil/Cremophor EL (72/8/20)): 72 mgA/ml
Solubility (Miglyol 812/Propylene carbonate/Cremophor EL 30/50/20): 228 mgA/ml
Solubility (Miglyol 812/Propylene carbonate/Cremophor EL 40/40/20): 209 mgA/ml
Solubility (Miglyol 812/Propylene carbonate/Cremophor EL 55/25/20): 158 mgA/ml
Solubility (Miglyol 812/Propylene carbonate/Cremophor EL 72/8/20): 108 mgA/ml
Solubility (Miglyol 812/Propylene carbonate/Labrasol (72/8/20)): 116 mgA/ml
Solubility (Miglyol 812/Propylene carbonate/Tagat TO (72/8/20)): 111 mgA/ml
Solubility (Miglyol 812/Triacetin/Cremophor EL 30/50/20): 198 mgA/ml
Solubility (Miglyol 812/Triacetin/Cremophor EL 40/40/20): 183 mgA/ml
Solubility (Miglyol 812/Triacetin/Cremophor EL 50/30/20): 158 mgA/ml
Solubility (Miglyol 812/Triacetin/Cremophor EL 60/20/20): 133 mgA/ml
Solubility (Miglyol 812/Triacetin/Cremophor EL 65/15/20): 111 mgA/ml
Solubility (Miglyol 812/Triacetin/Cremophor EL 72/8/20): 94 mgA/ml
Solubility (vehicle Capmul MCM): 41 mgA/ml
Solubility (vehicle Cremophor EL): 20 mgA/ml
Solubility (vehicle Dimethylisosorbide): 439 mgA/ml
Solubility (vehicle Ethyl lactate): 400 mgA/ml
Solubility (vehicle Glycofurol): 99 mgA/ml
Solubility (vehicle Labrafil M 1944): 26 mgA/ml
Solubility (vehicle Labrafil M 2125): 27 mgA/ml
Solubility (vehicle Labrasol): 41 mgA/ml
Solubility (vehicle Lauroglycol FCC): 70 mgA/ml
Solubility (vehicle Maisine 35-1): 9 mgA/ml
Solubility (vehicle Miglyol 812): 65 mgA/ml
Solubility (vehicle Miglyol 812/Capmul MCM (80/20)): 74 mgA/ml
Solubility (vehicle Miglyol 812/Capmul MCM/Polysorbate 80 (20/60/20)): 63 mgA/ml
Solubility (vehicle Miglyol 812/Capmul MCM/Polysorbate 80 (40/40/20)): 58 mgA/ml
Solubility (vehicle Miglyol 812/Cremophor EL 80/20): 68 mgA/ml
Solubility (vehicle Miglyol 812/Labrafil M 1944 (80/20)): 59 mgA/ml
Solubility (vehicle Miglyol 812/Labrafil M 2125 (80/20)): 57 mgA/ml
Solubility (vehicle Miglyol 812/Labrasol (80/20)): 69 mgA/ml
Solubility (vehicle Miglyol 812/Peppermint oil (80/20)): 93 mgA/ml
Solubility (vehicle Miglyol 812/Peppermint oil (90/10)): 79 mgA/ml
Solubility (vehicle Miglyol 812/Tagat TO (80/20)): 58 mgA/ml
Solubility (vehicle Miglyol 812/propylene carbonate/Cremophor EL (60/20/20)): 146 mgA/ml
Solubility (vehicle Miglyol 812/triacetin (90/10), not completely miscible): 106 mgA/ml
Solubility (vehicle N-methyl-2-pyrrolidone): 813 mgA/ml
Solubility (vehicle Oleic acid): 8.5 mgA/ml
Solubility (vehicle Olive oil): 17 mgA/ml
Solubility (vehicle Olive oil/Capmul MCM (80/20)): 23 mgA/ml
Solubility (vehicle Olive oil/Peppermint oil (90/10)): 25 mgA/ml
Solubility (vehicle Peceol): 10 mgA/ml
Solubility (vehicle Plurol Oleique CC 497): 17 mgA/ml
Solubility (vehicle Pluronic L-44): 36 mgA/ml
Solubility (vehicle Polysorbate 80 (Tween 80)): 23 mgA/ml
Solubility (vehicle Propylene carbonate): 227 mgA/ml
Solubility (vehicle Tagat TO (Polyoxyethylene glycerol trioleate)): 32 mgA/ml
Solubility (vehicle Transcutol P): 174 mgA/ml
Solubility (vehicle Triacetin): 235 mgA/ml
Solubility (vehicle Triethyl citrate): 240 mgA/ml
Solubility (vehicle peppermint oil): 266 mgA/ml
SMILES: CCOC(=O)N1c2ccc(C(F)(F)F)cc2[C@@H](N(Cc2cc(C(F)(F)F)cc(C(F)(F)F)c2)C(=O)OC)C[C@H]1CC [Compound A, [2R,4S] 4-[(3,5-bis-trifluoromethyl-benzyl)-methoxycarbonyl-amino]-2-ethyl-6-trifluoromethyl-3,4-dihydro-2H-quinoline-1-carboxylic acid ethyl ester]
